# Results as given in patent EP4809830A1, “USE OF 2'-FUCOSYLLACTOSE IN PROMOTING INTESTINAL DEVELOPMENT AND PREVENTING INTESTINAL DAMAGE” (Ausnutria Dairy (China) Co., Ltd., priority 2024, dated 2025).
# What was measured:
# Caco-2 cells [1] = test: Effects of 2'-FL on glycocalyx development in intestinal epithelial cells (qPCR of glycocalyx development genes); format: cell-based, human
# Experimental: (§1) Caco-2 cell culture: human colon adenocarcinoma cells Caco-2 were cultured in MEM complete medium containing 20% high-quality fetal bovine serum, grown in 25 cm^2 cell culture flasks and incubated in a carbon dioxide incubator at 37 °C, 5% CO2, and 95% relative humidity. The culture medium was changed every one or two days. When the cells reach 80%-90% confluence, the cells were digested with 0.25% trypsin digestion solution and subcultured at a ratio of 1:3.
# 1.1 Experiments: Caco-2 cells were adjusted to a density of 1 × 10^5 cells/cm^2 and inoculated in 24-well plates. According to groups, 2'-FL at concentrations of 0.6 mg/mL, 1.2 mg/mL, and 2.4 mg/mL was added to MEM complete medium, respectively. After incubation for 3 days, MEM medium was served as a blank control. Total RNA was extracted from the cells and reverse transcribed. Transcriptional levels of genes related to glycocalyx development, including glypican 1 (gpc1), hyaluronic acid synthases (has1, has2 and has3), and exostosin glycosyltransferases (ext1 and ext2) in the Caco-2 cells were measured by qPCR. qPCR primer sequences were shown in Table 1.
# (§2) qPCR kit manufacturer: Nanjing Vazyme Biotechnology Co., Ltd.; Catalog number: AceQ Universal U+ Probe Master Mix V2; amplification program: step 1: 37 °C for 2 min, and cycle number 1; step 2: 95 °C for 5 min, and cycle number 1; and step 3: 95 °C for 10 s, 60°C for 30 s, and cycle number 45.
# Caco-2 cells [2] = test: Preventive effects of 2'-FL on glycocalyx damage caused by LPS (qPCR of glycocalyx development genes); format: cell-based, human; conditions: for transcriptional level of gpc1: then 100 ng/mL LPS 24 h; for transcriptional level of ext2 / transcriptional level of has2 / transcriptional level of has3 / transcription level of has1 / transcriptional level of ext1: then LPS
# Experimental: as §1, §2
# 2.1 Experiments: Caco-2 cells were adjusted to a density of 1 × 10^5 cells/cm^2 and inoculated in 24-well plates. According to groups, 2'-FL at concentrations of 0.6 mg/mL, 1.2 mg/mL, and 2.4 mg/mL was added to MEM complete medium, respectively. After incubation for 3 days, culture supernatant was removed, and fresh MEM complete medium with a final concentration of 100 ng/mL LPS was added and they are co-incubated for 24 h. Cells with added LPS but without 2'-FL were designated as a model group, and cells without added LPS or 2'-FL were designated as a blank group. Total RNA was extracted from the cells and reverse transcribed. Transcriptional levels of genes related to glycocalyx development, including glypican 1 (gpc1), hyaluronic acid synthases (has1, has2 and has3), and exostosin glycosyltransferases (ext1 and ext2), in the Caco-2 cells were measured by qPCR.
# [3] = all three concentrations of 2'-FL (0.6, 1.2, 2.4 mg/mL), 3 days, vs blank control, p < 0.05
# [4] = of 0.6, 1.2, 2.4 mg/mL tested, effect decreases with increasing concentration
# [5] = summary statement, 0.6mg/mL-1.2 mg/mL
# [6] = 2.4 mg/mL 2'-FL, compared to the model group, p < 0.05
# [7] = different concentrations of 2'-FL 3 days, compared with the blank group
# [8] = prevention group with different concentrations of 2'-FL, vs the blank group, p > 0.05
# [9] = summary statement, 0.6mg/mL-2.4 mg/mL
smiles,measurement,setting,value
"C[C@@H]1O[C@@H](O[C@H]2[C@H](O[C@H]3[C@H](O)[C@@H](O)C(O)O[C@@H]3CO)O[C@H](CO)[C@H](O)[C@@H]2O)[C@@H](O)[C@H](O)[C@@H]1O (stereo partly shown) [2'-FL, 2'-fucosyllactose]",transcriptional level of ext1 mRNA,Caco-2 cells [1]; [3],significantly upregulate
same,transcriptional level of ext2 mRNA,Caco-2 cells [1]; [3],significantly upregulate
same,transcriptional level of gpc1 mRNA,Caco-2 cells [1]; [3],significantly upregulate
same,transcriptional level of has1 mRNA,Caco-2 cells [1]; [3],significantly upregulate
same,transcriptional level of has2 mRNA,Caco-2 cells [1]; [3],significantly upregulate
same,transcriptional level of has3 mRNA,Caco-2 cells [1]; [3],significantly upregulate
same,concentration at which the upregulation effect on the transcriptional level of ext1 reaches a maximum,Caco-2 cells [1]; [4],0.6 mg/mL
same,concentration at which the upregulation effect on the transcriptional level of ext2 reaches a maximum,Caco-2 cells [1]; [4],0.6 mg/mL
same,concentration at which the upregulation effect on the transcriptional level of has1 reaches a maximum,Caco-2 cells [1]; [4],0.6 mg/mL
same,concentration at which the upregulation effect on the transcriptional level of has2 reaches a maximum,Caco-2 cells [1]; [4],0.6 mg/mL
same,concentration at which the upregulation effect on the transcriptional level of has3 reaches a maximum,Caco-2 cells [1]; [4],0.6 mg/mL
same,concentration at which the upregulation effect on the transcriptional level of gpc1 reaches a maximum,"Caco-2 cells [1]; of 0.6, 1.2, 2.4 mg/mL tested, first increasing and then decreasing",1.2 mg/mL
same,transcriptional level of ext1,"Caco-2 cells [1]; summary statement, 0.6 mg/mL",significantly upregulate
same,transcriptional level of ext2,"Caco-2 cells [1]; summary statement, 0.6 mg/mL",significantly upregulate
same,transcriptional level of has1,"Caco-2 cells [1]; summary statement, 0.6 mg/mL",significantly upregulate
same,transcriptional level of has2,"Caco-2 cells [1]; summary statement, 0.6 mg/mL",significantly upregulate
same,transcriptional level of has3,"Caco-2 cells [1]; summary statement, 0.6 mg/mL",significantly upregulate
same,transcriptional level of gpc1,Caco-2 cells [1]; [5],significantly upregulate
same,transcriptional level of gpc1,"Caco-2 cells [2]; 0.6 mg/mL 2'-FL 3 days, compared with the blank group",significantly upregulate
same,transcriptional level of gpc1,"Caco-2 cells [2]; 1.2 mg/mL 2'-FL 3 days, compared with the blank group",significantly upregulate
same,transcriptional level of ext2,"Caco-2 cells [2]; 1.2 mg/mL 2'-FL, p<0.05",significantly upregulate
same,transcriptional level of has2,Caco-2 cells [2]; [6],significantly upregulated
same,transcriptional level of has3,Caco-2 cells [2]; [6],significantly upregulated
same,transcription level of has1,"Caco-2 cells [2]; 2.4 mg/mL 2'-FL, compared with the model group",significantly upregulated
same,transcriptional level of ext2,"Caco-2 cells [2]; 2.4 mg/mL 2'-FL, p<0.05",significantly upregulate
same,transcriptional level of ext1,Caco-2 cells [2]; [7],still upregulated
same,transcriptional level of ext2,Caco-2 cells [2]; [7],still upregulated
same,transcriptional level of gpc1,"Caco-2 cells [2]; different concentrations of 2'-FL (0.6, 1.2, 2.4 mg/mL) 3 days, compared with the blank group",still upregulated
same,transcriptional level of has2,Caco-2 cells [2]; [8],no significant differences
same,transcriptional level of has3,Caco-2 cells [2]; [8],no significant differences
same,transcription level of has1,"Caco-2 cells [2]; prevention groups with different concentrations of 2'-FL (0.6, 1.2, 2.4 mg/mL), compared with the blank group, p < 0.05",significantly downregulated
same,downregulation of the transcriptional level of gpc1 caused by LPS,Caco-2 cells [2]; [5],significantly prevent downregulation
same,downregulation of the transcriptional level of ext1 caused by LPS,Caco-2 cells [2]; [9],significantly prevent downregulation
same,downregulation of the transcriptional level of ext2 caused by LPS,Caco-2 cells [2]; [9],significantly prevent downregulation
same,downregulation of the transcriptional level of has2 caused by LPS,Caco-2 cells [2]; [9],significantly prevent downregulation
same,downregulation of the transcriptional level of has3 caused by LPS,Caco-2 cells [2]; [9],significantly prevent downregulation
same,transcriptional level of ext1,"Caco-2 cells [2]; three concentrations of 2'-FL (0.6, 1.2, 2.4 mg/mL), p<0.05",significantly upregulate
